Source: PubChem BioAssay (NCI)
Where “and” joins values, the source holds several entries; their conditions need not be identical. Identical values can stand only once.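 Five concentrations, 48 hours, 96-well plates. The concentration for 50% growth inhibition is given as GI50. TGI: total growth inhibition.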

Key:
Assay in all cases: inhibition of tumour cell growth, NCI panel, 48 h
786-0 renal = system: 786-0 renal
ACHN renal = system: ACHN renal
CAKI-1 renal = system: CAKI-1 renal
EKVX NSCLC = system: EKVX NSCLC
KM12 colon = system: KM12 colon
NCI-H23 lung = system: NCI-H23 lung
RXF 393 renal = system: RXF 393 renal
SF-295 CNS = system: SF-295 CNS
UACC-62 melanoma = system: UACC-62 melanoma
SR leukemia = system: SR leukemia

With `Cc1ccc(S(=O)(=O)N(C)C)cc1[N+](=O)[O-]` as the compound, how does the GI50 (786-0 renal) read?
The GI50 was > 100 µM.

And the TGI (786-0 renal)?
The TGI was > 100 µM.

And the GI50 (ACHN renal)?
Its GI50 is > 100 µM.

And the TGI (ACHN renal)?
Its TGI is > 100 µM.

What about the GI50 (CAKI-1 renal) of the same compound?
The GI50 was > 100 µM.

What about the TGI (CAKI-1 renal) of the same compound?
Its TGI is > 100 µM.

And the GI50 (EKVX NSCLC)?
The GI50 was > 100 µM.

What about the TGI (EKVX NSCLC) of the same compound?
Its TGI is > 100 µM.

And the GI50 (KM12 colon)?
The GI50 was > 100 µM.

What about the TGI (KM12 colon) of the same compound?
The TGI was > 100 µM.

What about the GI50 (NCI-H23 lung) of the same compound?
The GI50 was > 100 µM.

What about the TGI (NCI-H23 lung) of the same compound?
Its TGI is > 100 µM.

And the GI50 (RXF 393 renal)?
Its GI50 is > 100 µM.

And the TGI (RXF 393 renal)?
The TGI was > 100 µM.

And the GI50 (SF-295 CNS)?
Its GI50 is > 100 µM.

What about the TGI (SF-295 CNS) of the same compound?
Its TGI is > 100 µM.

What about the GI50 (UACC-62 melanoma) of the same compound?
Its GI50 is > 100 µM.

And the TGI (UACC-62 melanoma)?
Its TGI is > 100 µM.

Which results are given for `O=C1CCC2(c3ccc(F)cc3)Nc3ccccc3N12` (centres undefined)?
TGI (786-0 renal): > 100 µM; TGI (ACHN renal): > 100 µM; TGI (CAKI-1 renal): > 100 µM; TGI (EKVX NSCLC): > 100 µM; TGI (KM12 colon): > 100 µM; TGI (NCI-H23 lung): > 100 µM; TGI (RXF 393 renal): > 100 µM; TGI (SF-295 CNS): > 100 µM; TGI (UACC-62 melanoma): > 100 µM

How did the TGI (786-0 renal) turn out when `COC(=O)C(=O)C(C(=O)C(=O)Nc1ccccc1C(=O)OC)c1nc2ccc(C(=O)c3ccccc3)cc2[nH]c1=O` (centres undefined) was run?
Its TGI is > 100 µM.

And the TGI (ACHN renal)?
Its TGI is > 100 µM.

And the TGI (CAKI-1 renal)?
The TGI was > 100 µM.

What about the TGI (EKVX NSCLC) of the same compound?
The TGI was > 100 µM.

And the TGI (KM12 colon)?
The TGI was > 100 µM.

What about the TGI (NCI-H23 lung) of the same compound?
The TGI was > 100 µM.

What about the TGI (RXF 393 renal) of the same compound?
The TGI was > 100 µM.

And the TGI (SF-295 CNS)?
The TGI was > 100 µM.

And the TGI (UACC-62 melanoma)?
Its TGI is > 100 µM.

How did the GI50 (786-0 renal) turn out when `COc1ccc(/C=C2/CN(C(=O)c3ccccc3F)C/C(=C\c3ccc(OC)cc3)C2=O)cc1` was run?
Its GI50 is 2.04 µM.

And the TGI (786-0 renal)?
Its TGI is 4.37 µM.

And the GI50 (ACHN renal)?
The GI50 was 2.95 µM.

What about the TGI (ACHN renal) of the same compound?
Its TGI is 9.46 µM.

What about the GI50 (CAKI-1 renal) of the same compound?
The GI50 was 4.87 µM.

What about the TGI (CAKI-1 renal) of the same compound?
Its TGI is > 100 µM.

And the GI50 (KM12 colon)?
The GI50 was 1.91 µM.

What about the TGI (KM12 colon) of the same compound?
The TGI was 3.59 µM.

And the GI50 (NCI-H23 lung)?
Its GI50 is 5.03 µM.

And the TGI (NCI-H23 lung)?
The TGI was 24.3 µM.

And the GI50 (RXF 393 renal)?
Its GI50 is 1.85 µM.

What about the TGI (RXF 393 renal) of the same compound?
Its TGI is 3.68 µM.

And the GI50 (SR leukemia)?
The GI50 was 0.884 µM.

What about the TGI (SR leukemia) of the same compound?
Its TGI is 6.33 µM.

What about the GI50 (UACC-62 melanoma) of the same compound?
Its GI50 is 2.53 µM.

And the TGI (UACC-62 melanoma)?
The TGI was 11.5 µM.

Which TGI (786-0 renal) does the source give for `O=C(NC1CCCCC1)c1c(O)[nH]c(=S)[nH]c1=O` here?
Its TGI is > 100 µM.

What about the TGI (ACHN renal) of the same compound?
Its TGI is > 100 µM.

What about the TGI (CAKI-1 renal) of the same compound?
The TGI was > 100 µM.

What about the TGI (KM12 colon) of the same compound?
The TGI was > 100 µM.

What about the TGI (NCI-H23 lung) of the same compound?
The TGI was > 100 µM.

And the TGI (SF-295 CNS)?
Its TGI is > 100 µM.

What about the TGI (SR leukemia) of the same compound?
Its TGI is > 100 µM.

And the TGI (UACC-62 melanoma)?
Its TGI is > 100 µM.

What does the source list for `O=C1OCC(c2ccc(O)c(O)c2)=C1c1cc(O)c(O)c(O)c1`?
GI50 (786-0 renal): 18.1 µM; TGI (786-0 renal): 32.7 µM; GI50 (ACHN renal): 33.3 µM; TGI (ACHN renal): > 100 µM; GI50 (CAKI-1 renal): 14.3 µM; TGI (CAKI-1 renal): 27.9 µM; GI50 (EKVX NSCLC): 70.6 µM; TGI (EKVX NSCLC): > 100 µM; GI50 (KM12 colon): 23.8 µM; TGI (KM12 colon): 55.6 µM; GI50 (NCI-H23 lung): 19.2 µM; TGI (NCI-H23 lung): 38.2 µM; GI50 (RXF 393 renal): > 100 µM; TGI (RXF 393 renal): > 100 µM; GI50 (SF-295 CNS): 14.6 µM; TGI (SF-295 CNS): 30.9 µM; GI50 (UACC-62 melanoma): 52.7 µM; TGI (UACC-62 melanoma): > 100 µM

For `COc1ccc(CNc2cc(OC)cc(OC)c2)cc1`, which TGI (786-0 renal) is on record?
Its TGI is > 96.2 µM.

And the TGI (ACHN renal)?
Its TGI is > 100 µM.

And the GI50 (CAKI-1 renal)?
The GI50 was > 100 µM and 34.6 µM.

And the TGI (CAKI-1 renal)?
Its TGI is > 100 µM.

What about the TGI (EKVX NSCLC) of the same compound?
Its TGI is > 100 µM.

What about the TGI (KM12 colon) of the same compound?
The TGI was > 100 µM.

And the TGI (NCI-H23 lung)?
The TGI was > 100 µM.

What about the TGI (RXF 393 renal) of the same compound?
The TGI was > 100 µM.

And the GI50 (SF-295 CNS)?
The GI50 was > 100 µM and 38.2 µM.

And the TGI (SF-295 CNS)?
Its TGI is > 100 µM.

What about the TGI (UACC-62 melanoma) of the same compound?
The TGI was > 100 µM.
